Assay results published in ChEMBL document CHEMBL3046897, “Synthesis of 3-{4-[4-dimethylamino-6-(4-methyl-2-oxo-2H-chromen-7-yloxy)-[1,3,5]triazin-2-ylamino]-phenyl}-2-phenyl-5-(4-pyridin-2-yl-piperazin-1-ylmethyl)-thiazolidin-4-one and their biological evaluation” (2012).
≈ marks a conversion by molar mass, not a printed value.

Assays:
Format in all cases: functional
Proteus vulgaris [1] = assay: Antibacterial activity against Proteus vulgaris at 100 ug/disk after 24 hr by paper disk diffusion method; conditions: read-out: IZ
Shigella flexneri [2] = assay: Antibacterial activity against Shigella flexneri at 100 ug/disc after 24 hr by paper disk diffusion method; conditions: read-out: IZ
Salmonella typhi [3] = assay: Antibacterial activity against Salmonella enterica subsp. enterica serovar Typhi after 24 hr by agar streak dilution method
Escherichia coli [4] = assay: Antibacterial activity against Escherichia coli at 100 ug/disk after 24 hr by paper disk diffusion method; conditions: read-out: IZ
Klebsiella pneumoniae [5] = assay: Antibacterial activity against Klebsiella pneumoniae after 24 hr by agar streak dilution method
Staphylococcus aureus [6] = assay: Antibacterial activity against Staphylococcus aureus at 100 ug/disc after 24 hr by paper disk diffusion method; conditions: read-out: IZ
Salmonella typhi [7] = assay: Antibacterial activity against Salmonella enterica subsp. enterica serovar Typhi at 100 ug/disk after 24 hr by paper disk diffusion method; conditions: read-out: IZ
Klebsiella pneumoniae [8] = assay: Antibacterial activity against Klebsiella pneumoniae at 100 ug/disk after 24 hr by paper disk diffusion method; conditions: read-out: IZ
Candida albicans [9] = assay: Antifungal activity against Candida albicans at 100 ug/disk after 48 hr by paper disk diffusion method; conditions: read-out: IZ
Aspergillus niger [10] = assay: Antifungal activity against Aspergillus niger after 48 hr by agar streak dilution method
Candida albicans [11] = assay: Antifungal activity against Candida albicans after 48 hr by agar streak dilution method
Pseudomonas aeruginosa [12] = assay: Antibacterial activity against Pseudomonas aeruginosa after 24 hr by agar streak dilution method
Escherichia coli [13] = assay: Antibacterial activity against Escherichia coli after 24 hr by agar streak dilution method
Bacillus subtilis [14] = assay: Antibacterial activity against Bacillus subtilis after 24 hr by agar streak dilution method
Bacillus subtilis [15] = assay: Antibacterial activity against Bacillus subtilis at 100 ug/disk after 24 hr by paper disk diffusion method; conditions: read-out: IZ
Shigella flexneri [16] = assay: Antibacterial activity against Shigella flexneri after 24 hr by agar streak dilution method
Staphylococcus aureus [17] = assay: Antibacterial activity against Staphylococcus aureus after 24 hr by agar streak dilution method
Aspergillus fumigatus [18] = assay: Antifungal activity against Aspergillus fumigatus after 48 hr by agar streak dilution method
Aspergillus clavatus [19] = assay: Antifungal activity against Aspergillus clavatus at 100 ug/disc after 48 hr by paper disk diffusion method; conditions: read-out: IZ
Aspergillus clavatus [20] = assay: Antifungal activity against Aspergillus clavatus after 48 hr by agar streak dilution method
Aspergillus niger [21] = assay: Antifungal activity against Aspergillus niger at 100 ug/disk after 48 hr by paper disk diffusion method; conditions: read-out: IZ
Pseudomonas aeruginosa [22] = assay: Antibacterial activity against Pseudomonas aeruginosa at 100 ug/disk after 24 hr by paper disk diffusion method; conditions: read-out: IZ
Aspergillus fumigatus [23] = assay: Antifungal activity against Aspergillus fumigatus at 100 ug/disc after 48 hr by paper disk diffusion method; conditions: read-out: IZ
Proteus vulgaris [24] = assay: Antibacterial activity against Proteus vulgaris after 24 hr by agar streak dilution method

Row | Compound | zone of inhibition at 100 µg/disc (Proteus vulgaris [1]) | zone of inhibition at 100 µg/disc (Shigella flexneri [2]) | MIC (Salmonella typhi [3]) | zone of inhibition at 100 µg/disc (Escherichia coli [4]) | MIC (Klebsiella pneumoniae [5]) | zone of inhibition at 100 µg/disc (Staphylococcus aureus [6]) | zone of inhibition at 100 µg/disc (Salmonella typhi [7]) | zone of inhibition at 100 µg/disc (Klebsiella pneumoniae [8]) | zone of inhibition at 100 µg/disc (Candida albicans [9]) | MIC (Aspergillus niger [10]) | MIC (Candida albicans [11]) | MIC (Pseudomonas aeruginosa [12]) | MIC (Escherichia coli [13]) | MIC (Bacillus subtilis [14]) | zone of inhibition at 100 µg/disc (Bacillus subtilis [15]) | MIC (Shigella flexneri [16]) | MIC (Staphylococcus aureus [17]) | MIC (Aspergillus fumigatus [18]) | zone of inhibition at 100 µg/disc (Aspergillus clavatus [19]) | MIC (Aspergillus clavatus [20]) | further results
1 | Cc1cc(=O)oc2cc(Oc3nc(Nc4ccc(N5C(=O)CSC5c5ccc(O)cc5)cc4)nc(N(C)C)n3)ccc12 (stereo not given) | 21 mm | 19 mm | 12.5 µg/mL (≈ 21.5 µM) | 24 mm | 100 µg/mL (≈ 172 µM) | 22 mm | 23 mm | 15 mm | 19 mm | 12.5 µg/mL (≈ 21.5 µM) | 50 µg/mL (≈ 85.8 µM) | 25 µg/mL (≈ 42.9 µM) | 12.5 µg/mL (≈ 21.5 µM) | 12.5 µg/mL (≈ 21.5 µM) | 20 mm | 50 µg/mL (≈ 85.8 µM) | 12.5 µg/mL (≈ 21.5 µM) | 12.5 µg/mL (≈ 21.5 µM) | 18 mm | 50 µg/mL (≈ 85.8 µM) | zone of inhibition at 100 µg/disc (Aspergillus niger [21]): 24 mm; zone of inhibition at 100 µg/disc (Pseudomonas aeruginosa [22]): 21 mm; zone of inhibition at 100 µg/disc (Aspergillus fumigatus [23]): 21 mm; MIC (Proteus vulgaris [24]): 12.5 µg/mL (≈ 21.5 µM)
2 | Cc1cc(=O)oc2cc(Oc3nc(Nc4ccc(N5C(=O)C(CN6CCN(c7ccccn7)CC6)SC5c5ccc(Cl)c(Cl)c5)cc4)nc(N(C)C)n3)ccc12 (stereo not given) | 20 mm | 19 mm | 50 µg/mL (≈ 61.7 µM) | 18 mm | 50 µg/mL (≈ 61.7 µM) | 19 mm | 20 mm | 19 mm | 17 mm | 100 µg/mL (≈ 123 µM) | 100 µg/mL (≈ 123 µM) | 25 µg/mL (≈ 30.8 µM) | 50 µg/mL (≈ 61.7 µM) | 25 µg/mL (≈ 30.8 µM) | 21 mm | 50 µg/mL (≈ 61.7 µM) | 50 µg/mL (≈ 61.7 µM) | 50 µg/mL (≈ 61.7 µM) | 20 mm | 50 µg/mL (≈ 61.7 µM) | zone of inhibition at 100 µg/disc (Aspergillus niger [21]): 16 mm; zone of inhibition at 100 µg/disc (Pseudomonas aeruginosa [22]): 21 mm; zone of inhibition at 100 µg/disc (Aspergillus fumigatus [23]): 18 mm; MIC (Proteus vulgaris [24]): 25 µg/mL (≈ 30.8 µM)
3 | COc1ccc(C2SCC(=O)N2c2ccc(Nc3nc(Oc4ccc5c(C)cc(=O)oc5c4)nc(N(C)C)n3)cc2)cc1OC (stereo not given) | 12 mm | 17 mm | 100 µg/mL (≈ 160 µM) | 11 mm | 100 µg/mL (≈ 160 µM) | 17 mm | 14 mm | < 10 mm | < 10 mm | 100 µg/mL (≈ 160 µM) | 100 µg/mL (≈ 160 µM) | 100 µg/mL (≈ 160 µM) | 100 µg/mL (≈ 160 µM) | 100 µg/mL (≈ 160 µM) | 14 mm | 50 µg/mL (≈ 79.8 µM) | 50 µg/mL (≈ 79.8 µM) | 100 µg/mL (≈ 160 µM) | 13 mm | 100 µg/mL (≈ 160 µM) | zone of inhibition at 100 µg/disc (Aspergillus niger [21]): 15 mm; zone of inhibition at 100 µg/disc (Pseudomonas aeruginosa [22]): 12 mm; zone of inhibition at 100 µg/disc (Aspergillus fumigatus [23]): < 10 mm; MIC (Proteus vulgaris [24]): 100 µg/mL (≈ 160 µM)
4 | Cc1cc(=O)oc2cc(Oc3nc(Nc4ccc(/N=C/c5ccc(Cl)cc5)cc4)nc(N(C)C)n3)ccc12 | 17 mm | 21 mm | 25 µg/mL (≈ 47.4 µM) | 16 mm | 100 µg/mL (≈ 190 µM) | 17 mm | 19 mm | 15 mm | 18 mm | 100 µg/mL (≈ 190 µM) | 50 µg/mL (≈ 94.9 µM) | 100 µg/mL (≈ 190 µM) | 100 µg/mL (≈ 190 µM) | 100 µg/mL (≈ 190 µM) | 14 mm | 25 µg/mL (≈ 47.4 µM) | 50 µg/mL (≈ 94.9 µM) | 50 µg/mL (≈ 94.9 µM) | 18 mm | 50 µg/mL (≈ 94.9 µM) | zone of inhibition at 100 µg/disc (Aspergillus niger [21]): 12 mm; zone of inhibition at 100 µg/disc (Pseudomonas aeruginosa [22]): 11 mm; zone of inhibition at 100 µg/disc (Aspergillus fumigatus [23]): 16 mm; MIC (Proteus vulgaris [24]): 50 µg/mL (≈ 94.9 µM)
5 | Cc1cc(=O)oc2cc(Oc3nc(Nc4ccc(/N=C/c5ccc(Cl)cc5Cl)cc4)nc(N(C)C)n3)ccc12 | 16 mm | 14 mm | 100 µg/mL (≈ 178 µM) | 13 mm | 50 µg/mL (≈ 89.1 µM) | 14 mm | 14 mm | 17 mm | 12 mm | 100 µg/mL (≈ 178 µM) | 100 µg/mL (≈ 178 µM) | 100 µg/mL (≈ 178 µM) | 100 µg/mL (≈ 178 µM) | 50 µg/mL (≈ 89.1 µM) | 17 mm | 100 µg/mL (≈ 178 µM) | 100 µg/mL (≈ 178 µM) | 100 µg/mL (≈ 178 µM) | 17 mm | 50 µg/mL (≈ 89.1 µM) | zone of inhibition at 100 µg/disc (Aspergillus niger [21]): 11 mm; zone of inhibition at 100 µg/disc (Pseudomonas aeruginosa [22]): 12 mm; zone of inhibition at 100 µg/disc (Aspergillus fumigatus [23]): 13 mm; MIC (Proteus vulgaris [24]): 50 µg/mL (≈ 89.1 µM)
